Experiments:
[1] = test system: transplanted tumor of human renal clear cell adenocarcinoma cell 786-O; test: 786-O transplanted tumor in nude mice; details: for Tumor Volume (mm3) (d 1): d1
Procedure: (§1) 786-O cells in a logarithmic growth phase were taken and subjected to a trypan blue exclusion experiment showing that the cell viability was more than 95%, then the cells were subjected to trypsinization, centrifugation, and supernatant removal. Then cell concentration was adjusted to 1×10^7/ml with matrigel, then each nude mouse was inoculated subcutaneously with 0.2 ml of cells at its right armpit and recorded as the first day of inoculation. When the tumor grows to be greater than or equal to 100 mm^3, the mice were randomly divided into 11 groups with 6 mice in each group: a model group, a cyclophosphamide group, isovaleryl spiramycin I groups with doses of 25, 50 and 100 mg/kg, isovaleryl spiramycin II groups with doses of 25, 50 and 100 mg/kg, and isovaleryl spiramycin III groups with doses of 25, 50 and 100 mg/kg. Each group was continuously administered intragastrically for 30 days with a dose of 20 ml/kg. The mice were sacrificed the next day after drug withdrawal and the indicators were tested. The long diameter and short diameter of the tumor, and the body weight of each mouse were recorded every 3 days from drug administration to nude mouse sacrifice.
(§2) The body weight of the nude mice and the long diameter (a) and short diameter (b) of the transplanted tumor were measured every 3 days, and the tumor volume (v), relative tumor volume (RTV) and relative tumor proliferation rate (T/C) are calculated respectively according to the following formulas, wherein V=a×b^2/2; RTV=V/V0 (V0 is the tumor volume before administration, V is the tumor volume before sacrifice), and T/C (%)=treatment group RTV/model control group RTV×100%.
(§3) Each mouse was weighed and sacrificed. After the tumor was completely stripped off from the body of the mouse, the non-tumor tissues such as blood stains and fat were removed to weigh the tumor and calculate the tumor growth inhibition rate. The average tumor weight of each group of mice is used as an indicator of efficacy. Tumor growth inhibition rate (%)=(1−the average tumor weight of the treatment group/the average tumor weight of the model group)×100%.

[2] = test system: transplanted tumor of human pancreatic cancer cell PANC-1; test: PANC-1 transplanted tumor in nude mice; details: for Tumor Volume (mm3) (d 1): d1
Procedure: as §1, with “Then” for “786-O cells in a logarithmic growth phase were taken and subjected to a trypan blue exclusion experiment showing that the cell viability was more than 95%, then the cells were subjected to trypsinization, centrifugation, and supernatant removal. Then”
as §2, §3

[3] = Spleen index of A549 lung cancer tumor-bearing mice; details: n = 6
[4] = test system: transplanted tumor of human renal cell adenocarcinoma cell 769-P; test: 769-P transplanted tumor in nude mice; details: for Tumor Volume (mm3) (d 1): d1
Procedure: as §1, with “Then” for “786-O cells in a logarithmic growth phase were taken and subjected to a trypan blue exclusion experiment showing that the cell viability was more than 95%, then the cells were subjected to trypsinization, centrifugation, and supernatant removal. Then”, “the” for “the body”
as §2, §3

[5] = 786-O, high dose (100 mg/kg in method) i.g. 30 days
[6] = 786-O, low dose (25 mg/kg in method) i.g. 30 days
[7] = 786-O, medium dose (50 mg/kg in method) i.g. 30 days
[8] = PANC-1, 12.5 mg/kg (low dose) i.g. 30 days
[9] = PANC-1, 25 mg/kg (medium dose) i.g. 30 days
[10] = PANC-1, 50 mg/kg (high dose) i.g. 30 days
[11] = 769-P, high dose (100 mg/kg in method) i.g. 30 days
[12] = 769-P, low dose (25 mg/kg in method) i.g. 30 days
[13] = 769-P, medium dose (50 mg/kg in method) i.g. 30 days

CO[C@@H]1[C@@H](O[C@@H]2O[C@H](C)[C@@H](O[C@H]3C[C@@](C)(O)[C@@H](OC(=O)CC(C)C)[C@H](C)O3)[C@H](N(C)C)[C@H]2O)[C@@H](CC=O)C[C@@H](C)[C@@H](O[C@H]2CC[C@H](N(C)C)[C@@H](C)O2)/C=C/C=C/C[C@@H](C)OC(=O)C[C@H]1O [Isovaleryl spiramycin I, isovaleryl spiramycin I]
Inhibition Rate (%) ([1]; 786-O nude mice, 25 mg/kg): 34.70%
Relative Tumor Proliferation Rate (T/C) ([1]; 786-O nude mice, 25 mg/kg): 37.88%
Relative Tumor Volume (RTV) ([1]; 786-O nude mice, 25 mg/kg): 6.99 ± 0.83
Tumor Weight ([1]; 786-O nude mice, 25 mg/kg): 1.40 ± 0.40 g
Tumor Volume (mm3) (d 1) ([1]; 786-O nude mice, 25 mg/kg): 96.85 ± 9.98 mm3
Tumor Volume (mm3) (d30) ([1]; 786-O nude mice, 25 mg/kg): 677.21 ± 58.76 mm3
Inhibition Rate (%) ([1]; 786-O nude mice, 50 mg/kg): 39.22%
Relative Tumor Proliferation Rate (T/C) ([1]; 786-O nude mice, 50 mg/kg): 37.19%
Relative Tumor Volume (RTV) ([1]; 786-O nude mice, 50 mg/kg): 6.86 ± 1.01
Tumor Weight ([1]; 786-O nude mice, 50 mg/kg): 1.31 ± 0.35 g
Tumor Volume (mm3) (d 1) ([1]; 786-O nude mice, 50 mg/kg): 96.82 ± 8.52 mm3
Tumor Volume (mm3) (d30) ([1]; 786-O nude mice, 50 mg/kg): 664.44 ± 73.49 mm3
Inhibition Rate (%) ([1]; 786-O nude mice, 100 mg/kg): 64.36%
Relative Tumor Proliferation Rate (T/C) ([1]; 786-O nude mice, 100 mg/kg): 36.87%
Relative Tumor Volume (RTV) ([1]; 786-O nude mice, 100 mg/kg): 6.81 ± 0.31
Tumor Weight ([1]; 786-O nude mice, 100 mg/kg): 0.76 ± 0.13 g
Tumor Volume (mm3) (d 1) ([1]; 786-O nude mice, 100 mg/kg): 103.25 ± 9.71 mm3
Tumor Volume (mm3) (d30) ([1]; 786-O nude mice, 100 mg/kg): 702.74 ± 37.66 mm3
Relative Tumor Proliferation Rate (T/C) [1, 5]: 36.89%
tumor growth inhibition rate [1, 5]: 64.36%
Relative Tumor Proliferation Rate (T/C) [1, 6]: 37.88%
tumor growth inhibition rate [1, 6]: 34.70%
tumor volume and relative tumor volume compared with the model group ([1]; 786-O, low, medium and high doses, P<0.05): significantly lower
Relative Tumor Proliferation Rate (T/C) [1, 7]: 37.19%
tumor growth inhibition rate [1, 7]: 39.22%
mouse weight compared with the model group ([1]; mouse, in vivo): no significant changes
Body Weight (g) (d1) ([1]; mouse, in vivo, 25 mg/kg): 21.87 ± 0.89 g
Body Weight (g) (d30) ([1]; mouse, in vivo, 25 mg/kg): 22.95 ± 0.88 g
Body Weight (g) (d1) ([1]; mouse, in vivo, 50 mg/kg): 22.00 ± 0.94 g
Body Weight (g) (d30) ([1]; mouse, in vivo, 50 mg/kg): 22.82 ± 0.64 g
Body Weight (g) (d1) ([1]; mouse, in vivo, 100 mg/kg): 21.88 ± 0.54 g
Body Weight (g) (d30) ([1]; mouse, in vivo, 100 mg/kg): 23.00 ± 0.67 g
Inhibition Rate (tumor growth inhibition rate) [2, 8]: 31.10%
Tumor Weight [2, 8]: 1.87 ± 0.25 g
Inhibition Rate (tumor growth inhibition rate) [2, 9]: 51.72%
Tumor Weight [2, 9]: 1.31 ± 0.50 g
Inhibition Rate (tumor growth inhibition rate) [2, 10]: 70.12%
Tumor Weight [2, 10]: 0.81 ± 0.08 g
Relative Tumor Proliferation Rate (T/C) ([2]; PANC-1, high dose i.g. 30 days): 30.80%
Relative Tumor Proliferation Rate (T/C) ([2]; PANC-1, low dose i.g. 30 days): 71.92%
tumor volume and relative tumor volume compared with the model group ([2]; PANC-1, low, medium and high doses, P<0.05): significantly lower
Relative Tumor Proliferation Rate (T/C) ([2]; PANC-1, medium dose i.g. 30 days): 49.05%
Relative Tumor Proliferation Rate (T/C) ([2]; PANC-1 nude mice, 12.5 mg/kg): 71.92%
Relative Tumor Volume (RTV) ([2]; PANC-1 nude mice, 12.5 mg/kg): 12.59 ± 7.49
Tumor Volume (mm3) (d 1) ([2]; PANC-1 nude mice, 12.5 mg/kg): 139.97 ± 26.58 mm3
Tumor Volume (mm3) (d30) ([2]; PANC-1 nude mice, 12.5 mg/kg): 1634.85 ± 789.61 mm3
Relative Tumor Proliferation Rate (T/C) ([2]; PANC-1 nude mice, 25 mg/kg): 49.05%
Relative Tumor Volume (RTV) ([2]; PANC-1 nude mice, 25 mg/kg): 8.58 ± 4.41
Tumor Volume (mm3) (d 1) ([2]; PANC-1 nude mice, 25 mg/kg): 146.57 ± 32.97 mm3
Tumor Volume (mm3) (d30) ([2]; PANC-1 nude mice, 25 mg/kg): 1162.80 ± 394.71 mm3
Relative Tumor Proliferation Rate (T/C) ([2]; PANC-1 nude mice, 50 mg/kg): 30.80%
Relative Tumor Volume (RTV) ([2]; PANC-1 nude mice, 50 mg/kg): 5.39 ± 0.97
Tumor Volume (mm3) (d 1) ([2]; PANC-1 nude mice, 50 mg/kg): 124.02 ± 15.14 mm3
Tumor Volume (mm3) (d30) ([2]; PANC-1 nude mice, 50 mg/kg): 656.95 ± 49.58 mm3
mouse weight compared with the model group ([2]; mouse, in vivo): no significant changes
Spleen Index (%) ([3]; dose 13 mg/kg): 0.32 ± 0.12%
Spleen Index (%) ([3]; dose 26 mg/kg): 0.38 ± 0.09%
Spleen Index (%) ([3]; dose 52 mg/kg): 0.31 ± 0.08%
Inhibition Rate (%) ([4]; 769-P nude mice, 25 mg/kg): 33.68%
Relative Tumor Proliferation Rate (T/C) ([4]; 769-P nude mice, 25 mg/kg): 75.78%
Relative Tumor Volume (RTV) ([4]; 769-P nude mice, 25 mg/kg): 13.99 ± 3.52
Tumor Weight ([4]; 769-P nude mice, 25 mg/kg): 1.37 ± 0.55 g
Tumor Volume (mm3) (d 1) ([4]; 769-P nude mice, 25 mg/kg): 106.47 ± 6.86 mm3
Tumor Volume (mm3) (d30) ([4]; 769-P nude mice, 25 mg/kg): 1489.03 ± 450.17 mm3
Inhibition Rate (%) ([4]; 769-P nude mice, 50 mg/kg): 47.33%
Relative Tumor Proliferation Rate (T/C) ([4]; 769-P nude mice, 50 mg/kg): 57.12%
Relative Tumor Volume (RTV) ([4]; 769-P nude mice, 50 mg/kg): 10.54 ± 2.65
Tumor Weight ([4]; 769-P nude mice, 50 mg/kg): 1.09 ± 0.48 g
Tumor Volume (mm3) (d 1) ([4]; 769-P nude mice, 50 mg/kg): 96.82 ± 8.51 mm3
Tumor Volume (mm3) (d30) ([4]; 769-P nude mice, 50 mg/kg): 1020.75 ± 282.92 mm3
Inhibition Rate (%) ([4]; 769-P nude mice, 100 mg/kg): 68.82%
Relative Tumor Proliferation Rate (T/C) ([4]; 769-P nude mice, 100 mg/kg): 36.88%
Relative Tumor Volume (RTV) ([4]; 769-P nude mice, 100 mg/kg): 6.81 ± 0.30
Tumor Weight ([4]; 769-P nude mice, 100 mg/kg): 0.64 ± 0.01 g
Tumor Volume (mm3) (d 1) ([4]; 769-P nude mice, 100 mg/kg): 103.26 ± 9.71 mm3
Tumor Volume (mm3) (d30) ([4]; 769-P nude mice, 100 mg/kg): 702.74 ± 37.66 mm3
Relative Tumor Proliferation Rate (T/C) [4, 11]: 36.88%
tumor growth inhibition rate [4, 11]: 68.82%
Relative Tumor Proliferation Rate (T/C) [4, 12]: 75.78%
tumor growth inhibition rate [4, 12]: 33.68%
tumor volume and relative tumor volume compared with the model group ([4]; 769-P, low, medium and high doses, P<0.05): significantly lower
Relative Tumor Proliferation Rate (T/C) [4, 13]: 57.12%
tumor growth inhibition rate [4, 13]: 47.33%
mouse weight compared with the model group ([4]; mouse, in vivo): no significant changes
Body Weight (g) (d1) ([4]; mouse, in vivo, 25 mg/kg): 21.44 ± 1.45 g
Body Weight (g) (d30) ([4]; mouse, in vivo, 25 mg/kg): 21.87 ± 0.89 g
Body Weight (g) (d1) ([4]; mouse, in vivo, 50 mg/kg): 21.79 ± 1.37 g
Body Weight (g) (d30) ([4]; mouse, in vivo, 50 mg/kg): 22.00 ± 0.94 g
Body Weight (g) (d1) ([4]; mouse, in vivo, 100 mg/kg): 21.39 ± 1.24 g
Body Weight (g) (d30) ([4]; mouse, in vivo, 100 mg/kg): 21.88 ± 0.54 g
